Consider 32 molecules from US20210205292A1, “INHIBITORS OF CREB-CBP INTERACTION FOR TREATMENT OF LEUKEMIA” (The Board of Trustees of the Leland Stanford Junior …, priority 2016, published 2021).

Common to all, as to type: cell-based
Experiment [1] has as its system HL60 (Human promyelocytic leukemia cell line). The experiment can be described thus: CellTiter Glo assay in HL60 cells. The method, then: (§1) The compounds prepared according to the methods described herein and tested for activity in the CellTiter Glo assay in HL60 (Human promyelocytic leukemia cell line), Jukat (human T lymphocyte cell line for acute T cell leukemia) and/or Nalm6 (human ALL cell line) cells.
(§2) Compounds were prepared according to the methods described herein and tested for activity in the CellTiter Glo assay in HL60 (Human promyelocytic leukemia cell line), Jukat (human T lymphocyte cell line for acute Tcell leukemia) and/or Nalm6 (human ALL cell line) cells.
(ATP-based viability assays read luminescence as a measure of living cells.)

The subject of experiment [2] is Jukat (human T lymphocyte cell line for acute T cell leukemia). The experiment can be described thus: CellTiter Glo assay in Jukat cells. The procedure:
as §1, §2

Experiment [3] concerns Nalm6 (human ALL cell line). The experiment can be described thus: CellTiter Glo assay in Nalm6 cells. The method, then:
as §1, §2

Usually IC50 stands for the midpoint of a concentration-inhibition curve. Low values mean greater potency in that assay, high ones weaker potency in that assay.

Turning to `O=C(Nc1cc(Cl)ccc1Cl)c1ccc2cccnc2c1O` [Compound 83], the IC50 was 1 to 10 µM in experiment [1] (HL-60, Table 5); 0.1 to 1 µM in experiment [2] (Table 5); 0.1 to 1 µM in experiment [3] (NALM-6, Table 5).

`O=C(Nc1ccc(F)c(C(F)(F)F)c1)c1cc(F)ccc1O` [Compound 48]: the IC50 in experiment [1] (HL-60, second Table 4) was < 1 µM; in experiment [2] (second Table 4), < 1 µM; in experiment [3] (NALM-6, second Table 4), 1 to 10 µM.

Take `CC(=O)Oc1ccc(Cl)cc1C(=O)Nc1ccc([N+](=O)[O-])cc1Cl` [Compound 24]: the IC50 in experiment [1] (HL-60, second Table 4) is < 1 µM; in experiment [2] (second Table 4), < 1 µM; in experiment [3] (NALM-6, second Table 4) it was < 1 µM.

With `N#Cc1ccc(NC(=O)c2cc(-c3cc(F)cc(F)c3)ccc2O)cc1` [Compound 233], the IC50 in experiment [1] (HL-60, second Table 4) fell in the range of 1 to 10 µM; in experiment [2] (second Table 4), 1 to 10 µM; in experiment [3] (NALM-6, second Table 4), 1 to 10 µM.

Take `N#Cc1ccc(NC(=O)c2cc(-c3ccco3)c3cccnc3c2O)cc1` [Compound 72]: the IC50 in experiment [1] (HL-60, Table 5) lay in the range of 0.1 to 1 µM; in experiment [2] (Table 5) it was 0.1 to 1 µM; in experiment [3] (NALM-6, Table 5), 0.1 to 1 µM.

In the case of `Cc1cc(NC(=O)c2cc(Cl)ccc2O)ccc1Cl` [Compound 35], the IC50 in experiment [1] (HL-60, second Table 4) is < 1 µM.

As to `O=C(Nc1ccc(Cl)c(Cl)c1)c1cc(F)ccc1O` [Compound 31], the IC50 is < 1 µM in experiment [1] (HL-60, second Table 4); < 1 µM in experiment [2] (second Table 4); 1 to 10 µM in experiment [3] (NALM-6, second Table 4).

As to `CCOC(=O)c1cccc(NC(=O)c2cc(F)ccc2O)c1` [Compound 58], the half-maximal inhibitory concentration (IC50) is < 1 µM in experiment [1] (HL-60, second Table 4); 1 to 10 µM in experiment [2] (second Table 4); 1 to 10 µM in experiment [3] (NALM-6, second Table 4).

As to `Cc1cccc(Cl)c1NC(=O)c1ccc2cccnc2c1O` [Compound 79], the IC50 fell in the range of 1 to 10 µM in experiment [1] (HL-60, Table 5); 1 to 10 µM in experiment [2] (Table 5); 1 to 10 µM in experiment [3] (NALM-6, Table 5).

`N#Cc1ccc(NC(=O)c2cc(Cl)ccc2O)cc1` [Compound 3]: the 50% inhibitory concentration (IC50) in experiment [1] (HL-60, second Table 4) is < 1 µM.

Turning to `N#Cc1ccc(Cl)c(NC(=O)c2ccc3cccnc3c2O)c1` [Compound 80], the IC50 in experiment [1] (HL-60, Table 5) lay in the range of 0.1 to 1 µM; in experiment [2] (Table 5), 0.1 to 1 µM; in experiment [3] (NALM-6, Table 5) it was 0.1 to 1 µM.

Turning to `O=C(Nc1ccc(Cl)cc1Cl)c1cc(F)ccc1O` [Compound 38], the IC50 in experiment [1] (HL-60, second Table 4) was < 1 µM; in experiment [2] (second Table 4), > 10 µM; in experiment [3] (NALM-6, second Table 4), 1 to 10 µM.

Regarding `O=C(Nc1cc(C(F)(F)F)cc(C(F)(F)F)c1)c1cc(Br)ccc1O` [Compound 159], the IC50 in experiment [1] (HL-60, second Table 4) is < 1 µM; in experiment [2] (second Table 4), < 1 µM; in experiment [3] (NALM-6, second Table 4) it was < 1 µM.

Consider `N#Cc1ccc(NC(=O)c2ccc3cccnc3c2O)c(Cl)c1` [Compound 77], for which the half-inhibitory concentration (IC50) in experiment [1] (HL-60, Table 5) lay in the range of 0.1 to 1 µM; in experiment [2] (Table 5), 0.1 to 1 µM; in experiment [3] (NALM-6, Table 5), 0.1 to 1 µM.

Regarding `O=C(Nc1ccc(Br)c(Cl)c1)c1cc(F)ccc1O` [Compound 26], in experiment [1] (HL-60, second Table 4), the half-maximal inhibitory concentration (IC50) was < 1 µM.

Take `O=C(Nc1cc(F)cc(F)c1)c1cc(F)ccc1O` [Compound 41]: the IC50 in experiment [1] (HL-60, second Table 4) was < 1 µM.

In experiment [1] (HL-60, second Table 4), `Cc1ccc(NC(=O)c2cc(F)ccc2O)cc1C#N` [Compound 19] came in with an IC50 of 1 to 10 µM.

Consider `Cc1ccc(NC(=O)c2ccc3cccnc3c2O)c(C)c1` [Compound 89], for which the IC50 in experiment [1] (HL-60, Table 5) lay in the range of 1 to 10 µM.

Take `Cc1cc(NC(=O)c2cc(F)ccc2O)ccc1C#N` [Compound 6]: in experiment [1] (HL-60, second Table 4), the IC50 was < 1 µM.

As to `O=C(Nc1ccc(Br)c(Cl)c1)c1cc(Cl)ccc1O` [Compound 30], in experiment [1] (HL-60, second Table 4), the IC50 was < 1 µM.

Turning to `O=C(Nc1ccc(-c2ccccc2)cc1)c1cc(F)ccc1O` [Compound 53], in experiment [1] (HL-60, second Table 4), the IC50 lay in the range of 1 to 10 µM.

As for `N#Cc1ccc(NC(=O)c2cc(Br)ccc2O)cc1` [Compound 2], the IC50 in experiment [1] (HL-60, second Table 4) is < 1 µM.

In experiment [1] (HL-60, second Table 4), `O=C(Nc1ccccc1C(F)(F)F)c1cc(F)ccc1O` [Compound 62] returned an IC50 of 1 to 10 µM.

Regarding `Cc1cc(NC(=O)c2cc(F)ccc2O)ccc1[N+](=O)[O-]` [Compound 21], the IC50 in experiment [1] (HL-60, second Table 4) was < 1 µM.

Take `O=C(Nc1c(Cl)cccc1Cl)c1ccc2cccnc2c1O` [Compound 87]: the IC50 in experiment [1] (HL-60, Table 5) was in the range of 0.1 to 1 µM.

`COc1cc(NC(=O)c2cc(F)ccc2O)ccc1F` [Compound 55] came in with an IC50 in experiment [1] (HL-60, second Table 4) of 1 to 10 µM.

In turn, `N#Cc1ccc(C#N)c(NC(=O)c2ccc3cccnc3c2O)c1` [Compound 88] returned an IC50 in experiment [1] (HL-60, Table 5) of 0.1 to 1 µM.

In experiment [1] (HL-60, Table 5), `CC(=O)Oc1c(C(=O)Nc2ccc(C#N)cc2)ccc2cccnc12` [Compound 74] gave an IC50 of 0.1 to 1 µM.

For the molecule `N#Cc1ccc(NC(=O)c2cc(F)ccc2O)cc1` [Compound 8], the IC50 in experiment [1] (HL-60, second Table 4) is < 1 µM.

Turning to `O=C(Nc1ccccc1F)c1cc(F)ccc1O` [Compound 61], the IC50 in experiment [1] (HL-60, second Table 4) was in the range of 1 to 10 µM.

In experiment [1] (HL-60, second Table 4), `Cc1cc(Cl)ccc1NC(=O)c1cc(F)ccc1O` [Compound 36] had an IC50 of 1 to 10 µM.

Consider `O=C(Nc1ccc([N+](=O)[O-])cc1Cl)c1cc(F)ccc1O` [Compound 22], for which the IC50 in experiment [1] (HL-60, second Table 4) was < 1 µM.
